Measured values reported in patent US7238512B2, “Method to produce para-hydroxybenzoic acid in the stem tissue of green plants by using a tissue-specific promoter” (E. I. du Pont de Nemours and Company, priority 2003, dated 2007).
Where two headings read alike, the source gives them in different places.

How the values were obtained:
[1] = system: Pseudomonas putida (DSM 12585) HCHL (4-hydroxycinnamoyl-CoA hydratase/lyase), native, SEQ ID NO:6
Procedure: LB medium (500 mL containing 50 mg/L) kanamycin was inoculated with a single colony of E. coli BL21 DE3 cells harboring the pET HCHL expression construct. Cells were grown to an ODλ=600 nm of 0.6 and protein production was induced by the adding of 0.2 mM IPTG. Cells were grown at room temperature for 24 h. Cells were harvested by centrifugation (5000×g for 10 min) and resuspended in 15 mL of 100 mM Tris/HCl (pH 8.5), 20 mM DTT, and 300 mM NaCl. […] Two 2.5-mL aliquots of the cell-free extract were buffer-exchanged using PD10 columns into 50 mM Tris/HCl (pH 7.6), 10 mM Na2SO3, and 1 mM EDTA. Buffer-exchanged extract (7 mL) was loaded onto a Q-sepharose column (15 mL gel bed volume). […] A fraction with HCHL activity was purified further by chromatography on hydroxyapatide (Biorad Econo-Pac cartridge CHT-II, 1 mL gel bed volume (Biorad, Calif., USA)). Approximately 2.5 mL was buffer-exchanged into (10 mM NaPO4, (pH 6.8) and 10 μM CaCl2).

[2] = molecular target: T1, Caulobacter crescentus HCHL (4-hydroxycinnamoyl-CoA hydratase/lyase), SEQ ID NO:61 (Caulobacter vibrioides, UniProt Q9A5P6); settings: Table 12; 0.8 ng enzyme, pHCACoA 0.9 to 440 μM
T1 sequence (Q9A5P6 1-275): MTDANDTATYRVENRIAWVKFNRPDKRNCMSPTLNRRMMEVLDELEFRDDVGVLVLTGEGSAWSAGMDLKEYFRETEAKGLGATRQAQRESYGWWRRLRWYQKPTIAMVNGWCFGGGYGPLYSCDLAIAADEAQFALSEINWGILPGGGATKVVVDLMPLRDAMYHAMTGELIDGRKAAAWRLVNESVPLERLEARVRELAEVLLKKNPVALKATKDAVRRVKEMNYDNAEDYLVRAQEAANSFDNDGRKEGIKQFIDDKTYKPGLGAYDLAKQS

[3] = system: Pseudomonas fluorescens AN103 HCHL (4-hydroxycinnamoyl-CoA hydratase/lyase); settings: published, Mitra et al., Arch. Biochem. Biophys., 365(1):6-10 (1999); cited from earlier work
[4] = system: Pseudomonas putida (DSM 12585) HCHL (4-hydroxycinnamoyl-CoA hydratase/lyase), variant with C-terminal hexa-histidine tag, SEQ ID NO:10; assay: Kinetic properties of the purified his-tagged HCHL enzyme from Pseudomonas putida (DSM 12585); HPLC quantitation of pHBALD / vanillin; settings: for Km / Vmax: his-tagged enzyme, 5.5 min; for Km: 100 mM Tris/HCl pH 8.5, 30° C., pHCACoA 343 to 2.7 μM, feruloylCoA 293 to 2.3 μM; for Vmax: pH 8.5, 30° C.
Procedure: A second expression construct was generated that expresses a variant of the HCHL protein that carries a C-terminal hexa-histidine tag.
LB medium (200 mL containing 50 mg/L kanamycin) was inoculated with a single colony of E. coli BL21 DE3 cells harboring the pET29a HCHL 6×His Tag expression construct. Cells were grown to an ODλ=600 nm of 0.6 and protein production was induced by addition of 0.2 mM IPTG. Cells were grown at room temperature for 24 h. Cells were harvested by centrifugation (5000×g for 10 min) and resuspended in 2.5 mL of 100 mM Tris/HCl (pH 8.5), 20 mM DTT, and 300 mM NaCl. The cell suspension was passed twice through a French press and cleared by centrifugation (30000×g, 20 min, at 4° C.). The cell-free extract was buffer-exchanged using PD10 columns into 20 mM NaPO4 (pH 7.5), 500 mM NaCl, and 10 mM imidazole and loaded on a 5 mL HiTrap chelating chromatography cartridge (Amersham Pharmacia, USA). The column was washed with 20 mL of loading buffer and 20 mL of loading buffer containing 70 mM imidazole. The his-tagged HCHL protein was eluted from the column with a linear gradient from 70-1000 mM imidazole in loading buffer.

[5] = HCHL enzyme activity in leaf and stalk tissue of transgenic plants; settings: leaf, T2 lines, eight weeks, Table 6
Description: For this experiment the basal stem segment was used.
The primary transformants were self crossed and T2 seed material was germinated on selective media containing glufosinate, transferred to soil, and grown for eight weeks. Leaf and stalk tissue was harvested and subjected to pHBA analysis and assayed for HCHL activity (Table 6).
T2 plants of the Caulobacter and Pseudomonas fluorescens HCHL transgenics were germinated on selective media and grown in soil for 6 weeks to obtain sufficient stalk tissue for analysis of HCHL enzyme activity.

[6] = system: Arabidopsis plants; settings: in vivo
[7] = system: Arabidopsis plants; assay: pHBA analysis in tissue of transgenic plants by acid hydrolysis and HPLC; type: in vivo, Arabidopsis thaliana; settings: for Whole stalk pHBA highest: best primary transformant; for Whole stalk pHBA highest / Basal stalk pHBA average / Basal stalk pHBA highest: Table 5; for Basal stalk pHBA average / Basal stalk pHBA highest: primary transformants, eight weeks; for Basal stalk pHBA average: 2 cm stem segment at base; for pHBA levels relative to the best 35S HCHL line: whole stalk tissue, best lines
Procedure: If not stated otherwise, plants were grown under standard conditions ([…], 12 h darkness) in a greenhouse. Plants expressing HCHL genes where grown at 100 μE m^−2 sec^−1, 14 h light (23° C.), 12 h (18° C.) darkness and 70% relative humidity in growth chambers (Conviron, USA). Sterile plant cultures were maintained under identical conditions in a plant growth chamber (Percival, USA).
Arabidopsis thaliana plants were transformed using Agrobacterium strains (C58, C1 GV3101 MP90) (Koncz, C. and Schell, J., Mol. Gen. Genet., 204:383-396 (1986)) and published protocols of the in-planta transformation method (Desfeux et al., Plant Physiology, 123(3):895-904 (2000)). Selection for transformants carrying the NPTII gene was conducted on sterile growth media in the presence of 50 mg/L kanamycin. Selection for transformants carrying the BAR gene was conducted on sterile growth media in the presence of 7.5 mg/L glufosinate or by germinating seed in soil followed by spray-application of an aqueous solution (6 mg/L) of glufosinate herbicide (Sigma, USA) 7 days after germination. Plants destined for plant transformation experiments were grown under permanent light at 23° C. to accelerate flower development.
pHBA was quantitated in plant tissue by HPLC analysis. For determination of pHBA conjugates, fresh oven-dried or lyophilized tissue was extracted with 50% MeOH. To quantitate free pHBA plant samples (fresh, dried, lyophilized plant tissue or dried-down methanol extracts of plant tissue) were subjected to acid hydrolysis. Dried or lyophilized tissue was ground to a fine powder using a Cyclotec 1093 tissue mill (Foss Tecator, Sweden) prior to hydrolysis. Tissue (5-25 mg of dried or lyophilized material, 10-100 mg of fresh tissue) was supplemented with 500-750 μL of 1M HCl and incubated at 100° C. for 1-3 h. The hydrolysate was adjusted to alkaline pH by addition of one volume of 1.1 M NaOH.

[8] = substrate: CC(C)(COP(=O)(O)OP(=O)(O)OC[C@H]1O[C@@H](n2cnc3c(N)ncnc32)[C@H](O)[C@@H]1OP(=O)(O)O)[C@@H](O)C(=O)NCCC(=O)NCCSC(=O)/C=C/c1ccc(O)cc1; assay: purified protein, by the assay type; settings: other: Table 12, 0.8 ng enzyme, pHCACoA 0.9 to 440 μM, pH 8.5, 30° C.
[9] = HCHL enzyme assay, kinetic properties of purified recombinant HCHL with pHCACoA; type: biochemical; settings: compared to the Pseudomonas fluorescens AN103 enzyme
Description: The reaction mixture was cleared by centrifugation.

[10] = native enzyme, Example 1, pH 8.5, 30° C.

CC(C)(COP(=O)(O)OP(=O)(O)OC[C@H]1O[C@@H](n2cnc3c(N)ncnc32)[C@H](O)[C@@H]1OP(=O)(O)O)[C@@H](O)C(=O)NCCC(=O)NCCSC(=O)/C=C/c1ccc(O)cc1 [pHCACoA, para-coumaroyl-CoA]
Vmax ([1]; Table 12, 1.4 ng enzyme, pHCACoA 0.9 to 440 μM): 43 nkat mg^−1 | Km ([1]; Table 12, 1.4 ng enzyme, pHCACoA 0.9 to 440 μM, pH 8.5, 30° C.): 2.4 µM | catalytic center activity (per enzyme dimer) ([1]; from Vmax with pHCACoA, using 30,865.1 Da per monomer): 2.65 s⁻¹ | Km [1, 10]: 2.4 µM | Vmax [1, 10]: 43 nkat/mg | Vmax [2]: 240 nkat mg^−1 | Km [3]: 5.3 µM | Vmax [3]: 73 nkat/mg | catalytic center activity (per enzyme dimer) ([4]; from Vmax with pHCACoA, using 32,348.8 Da per monomer): 3.4 s⁻¹ | Km [4]: 2.53 µM | Vmax [4]: 53.8 nkat/mg

AtCesA7 (IRX3) HCHL: Arabidopsis AtCesA7 (IRX3) promoter fused to P. putida HCHL coding sequence, SEQ ID NO:30
HCHL activity [5]: no detectable HCHL activity | plant phenotype [6]: phenotypically indistinguishable from wild type plants | Whole stalk pHBA highest [7]: 12.96 (line 366) mg/g DW | Basal stalk pHBA average [7]: 1.21 mg/g FW | Basal stalk pHBA highest [7]: 3.91 mg/g FW | pHBA levels relative to the best 35S HCHL line [7]: 60%

COc1cc(/C=C/C(=O)SCCNC(=O)CCNC(=O)[C@H](O)C(C)(C)COP(=O)(O)OP(=O)(O)OC[C@H]2O[C@@H](n3cnc4c(N)ncnc43)[C@H](O)[C@@H]2OP(=O)(O)O)ccc1O [feruloylCoA]
Km [3]: 2.4 µM | Vmax [3]: 36.5 nkat/mg | Km [4]: 2.39 µM | Vmax [4]: 37.3 nkat/mg

C4H HCHL: Arabidopsis C4H promoter fused to P. putida HCHL coding sequence, SEQ ID NO:27
Whole stalk pHBA highest [7]: 23.42 (line 35) mg/g DW | Basal stalk pHBA average [7]: 0.89 mg/g FW | Basal stalk pHBA highest [7]: 5.54 mg/g FW | pHBA levels relative to the best 35S HCHL line [7]: 106%

C3′H HCHL: Arabidopsis C3′H promoter fused to P. putida HCHL coding sequence, SEQ ID NO:29
Whole stalk pHBA highest [7]: 9.52 (line 227) mg/g DW | Basal stalk pHBA average [7]: 0.41 mg/g FW | Basal stalk pHBA highest [7]: 1.65 mg/g FW

4CL1 HCHL: Arabidopsis 4CL1 promoter fused to P. putida HCHL coding sequence, SEQ ID NO:28
Whole stalk pHBA highest [7]: 12.93 (line 183) mg/g DW | Basal stalk pHBA average [7]: 0.55 mg/g FW | Basal stalk pHBA highest [7]: 3.87 mg/g FW | pHBA levels relative to the best 35S HCHL line [7]: 60%

B1: Caulobacter crescentus HCHL (4-hydroxycinnamoyl-CoA hydratase/lyase), SEQ ID NO:61 (Caulobacter vibrioides CB15) (protein)
chain: T1 sequence (Q9A5P6 1-275)
Km [8]: 4 µM | improvement of catalytic efficiency (Kcat/Km) [9]: 50%
